Assay results published in EP0628539B1, “Polyepoxysuccinic acid derivatives and their use for the control of scale formation and corrosion in aqueous systems” (BetzDearborn Europe, Inc., priority 1993, dated 1994).

Legend:
[1] = Static calcium carbonate % inhibition evaluation (EDTA titration of filtrate calcium); settings: 1106 ppm Ca as CaCO3, 1160 ppm CO3 as CaCO3, pH = 9.0, Temp. = 70°C, Duration = 17 hours
Procedure: Table II summarizes the static calcium carbonate inhibition testing of the compounds of the present invention compared to several prior art calcium carbonate control agents. The tests were performed by adding the treatment solution (sample) to a carbonate stock solution of the described conditions.
A calcium stock solution was then added and the mixture was incubated for 17 hours at 70°C. All treatments were adjusted to pH 9.0 prior to use and the treatment weights, expressed as the sodium salts, accounted for the presence of disodium tartrate by-product. After cooling, a measured portion of the mixture was filtered and the filtrate pH adjusted to less than 1 with hydrochloric acid. The filtrate was then diluted and pH adjusted to 12 with sodium hydroxide. A calcium indicator, murexide, was then added and the solution titrated with a known concentration of ethylenediaminetetraacetic acid (EDTA). From titrations for the treated, stock and control solutions, the percent inhibition was calculated as follows: % Inhibition =(mls EDTA(treated) - mls EDTA(control))/(mls EDTA(stock) - mls EDTA(control))x 100 [formula]

[2] = Beaker Corrosion Test Apparatus (BCTA): coupon and probe weight loss, electrochemical corrosion rate; settings: 25 ppm, base treatment 1 ppm HEDP, 10 ppm acrylic copolymer, 15 ppm molybdate (PESA: no HEDP), pH 8.4, 120°F, 40 hours
Procedure: The corrosion inhibition activity of the present invention was evaluated with a Beaker Corrosion Test Apparatus (BCTA). […] The test solution volume is 1.9 liters.
Electrochemical corrosion rate data (EC) are obtained during the test from potentiodynamic polarization resistance measurements. Additional corrosion data is obtained from the coupon and the electrochemical probe by standard weight loss measurement techniques. All tests were conducted under the following conditions unless otherwise noted:
Under these conditions, the test water is supersaturated with respect to calcium carbonate. […] Therefore, all tests were conducted with a base treatment to inhibit the precipitation of calcium carbonate under the test conditions. The blank runs reported for all tests include the addition of the base treatment.
In all tests, the blank corrosion rates are expressed in mils per year (mpy). The corrosion rates for the inhibitor compounds are expressed as a reduction in the corrosion rate relative to the blank calculated according to the following equation: % Corrosion Inhibition =((mpy Blank - mpy Treated))/(mpy Blank)x 100 [formula]
All tests were conducted as parts per million of the inhibitor molecule as the sodium salt. Compound αHCA(12) was evaluated as ppm of the free acid.
A sample of poly[epoxysuccinic acid]

| SMILES | Static Calcium Carbonate % Inhibition ([1]; 5 ppm Actives) [%] | Static Calcium Carbonate % Inhibition ([1]; 10 ppm Actives) [%] | Percent Corrosion Inhibition, Coupon ([2]; coupon weight loss relative to blank (62.4 mpy)) [%] | Percent Corrosion Inhibition, EC (avg) ([2]; electrochemical corrosion rate relative to blank (47.1 mpy)) [%] | Percent Corrosion Inhibition, Probe ([2]; probe weight loss relative to blank (58.9 mpy)) [%] |
| --- | --- | --- | --- | --- | --- |
| CC(O)(P(=O)(O)O)P(=O)(O)O [HEDP, 1-hydroxyethylidene-1,1-diphosphonic acid] | 73.1 | 71.3 | – | – | – |
| O=C(O)CCC(CC(=O)O)(C(=O)O)P(=O)(O)O (stereo not drawn) [PBSAM, 2-phosphonobutane - 1,2,4-tricarboxylic acid] | 67.5 | 76.0 | – | – | – |
| O=C([O-])C(O)[C@H](NCCS(=O)(=O)[O-])C(=O)[O-].[Na+].[Na+].[Na+] (stereo partly drawn) [αHCA(9), aspartic acid, 3-hydroxy, N-[2-ethanesulfonic acid]-trisodium salt] | 5.1 | 3.7 | 29.3 | 69.4 | 66.2 |
